Data reported in article PMC11239005, “Preclinical studies of RA475, a guanidine-substituted spirocyclic candidate RPN13/ADRM1 inhibitor for treatment of ovarian cancer” (PLOS ONE, 2024).
In brackets after ≈: the same amount, converted by molar mass. Entries after “also recorded” stand apart in the source; their conditions may differ. Like-named read-outs stand apart in the source and are kept apart here.

How the values were obtained:
[1] = system: 4UbFL expressed in leg muscle; test: 4UbFL reporter in leg muscle of CD-1 mice; assay type: in vivo, mouse; settings: for 4UbFL bioluminescence from leg muscle vs vehicle: single IP dose 40 mg/Kg, 4-96 h
Description: A patch of CD1 mouse leg was shaved of hair and 10 μg 4Ub-FL plasmid in 20 μL of PBS was injected into the quadriceps femoralis muscle followed immediately by injection of the 2 Needle Array to 5 mm depth encompassing the injection site and square wave EP (ElectroSquarePorator 833, BTX-2 Needle array 5mm gap, Harvard apparatus) delivered as eight pulses at 106 V for 20 ms with 200 ms intervals. One day post-EP, mice were anesthetized with isoflurane, injected IP with luciferin (0.3 mg in 100 μL water) and optical imaging was performed to determine basal level luciferase expression. Images were acquired for 10 min with a Xenogen IVIS 200 (Caliper, Hopkinton, MA). Equally sized areas were analyzed using Living Image 2.20 software.
Fig 3 Impact of RA475 on proteasome function. […] Actin was used as loading control. […] C) 4T1 and HCC1806 cells stably expressing 4UbFL were treated with compounds at indicated doses for 4 h and imaged by IVIS200 after the addition of luciferin substrate (50 μL, 7mg/mL in PBS). D) Sub-confluent cultures of ES2 cells stably expressing 4UbFL were seeded at 10,000 cells/well in 96-well microtiter plates. At 18 h post transfection, cells were treated with compounds or vehicle (DMSO) at the doses indicated. After a 4 h incubation, the cells were lysed and the luciferase activity in each cell lysate was determined with a luciferase assay kit (Promega) according to the manufacturer’s instructions. Bioluminescence was measured by using a luminometer (Glomax Multidetection system, Promega) E) A patch was shaved of hair on one leg of CD-1 mice, and 10 μg 4UbFL plasmid in 20 μL of PBS was injected into the quadriceps femoralis muscle followed immediately by injection of the 2 Needle Array to 5 mm depth encompassing the injection site and square wave electroporation (ElectroSquarePorator 833, BTX-2 Needle array 5mm gap, Harvard apparatus) delivered as eight pulses at 106V for 20 ms with 200 ms intervals. One day post electroporation, mice were anesthetized with isoflurane, injected IP with luciferin (0.3 mg in 100 μL water) and optical imaging was performed to determine basal level luciferase expression. Images were acquired for 10 min with a Xenogen IVIS 200 (Caliper, Hopkinton, MA). Equally sized areas were analyzed using Living Image 2.20 software. Mice were imaged weekly during treatment. Mice were randomized into three groups (n = 5) and treated IP once with Vehicle (25% (w/v) β-Hydroxypropylcyclodextrin in water, Sigma Aldrich) alone, RA475 (40 mg/Kg) or Up284 (40 mg/Kg) and mice were imaged again at 4 h, 24 h, 48 h, 72 h and 96 h later. F) Same as in E but RA475 (40mg/Kg) and ixazomib (10mg/Kg, recommended dose) were delivered orally. Thick line indicates median measurements. […]

[2] = Kinetic aqueous solubility in PBS pH 7.4; assay type: physicochemical; settings: 25 °C, pH 7.4, aqueous buffer, kinetic from dmso stock
Description: Kinetic solubility assays were performed according to Enamine’s aqueous solubility SOP. Briefly, using a 20 mM stock solution of the compound in 100% DMSO dilutions were prepared to a theoretical concentration of 400 μM in duplicates in phosphate-buffered saline pH 7.4 (138 mM NaCl, 2.7 mM KCl, 10 mM K-phosphate) with 2% final DMSO. The experimental compound dilutions in PBS were further allowed to equilibrate at 25°C on a thermostatic shaker for two hours and then filtered through HTS filter plates using a vacuum manifold. The filtrates of test compounds were diluted 2-fold with acetonitrile with 2% DMSO before measuring. In parallel, using a 20 mM stock solution of the compound in 100% DMSO dilutions were prepared to theoretical concentrations of 0 μM (blank), 10 μM, 25 μM, 50 μM, 100 μM, and 200 μM in 50% acetonitrile/PBS with 2% final DMSO to generate calibration curves. Ondansetron was used as a reference compound to control proper assay performance. 200 μL of each sample was transferred to a 96-well plate and measured in the 230–550 nm range with a 5 nm step. The concentrations of compounds in PBS filtrate are calculated using a dedicated Microsoft Excel calculation script. Proper absorbance wavelengths for calculations are selected for each compound manually based on absorbance maximums (absolute absorbance unit values for the minimum and maximum concentration points within the 0–3 OD range). Each final dataset is visually evaluated by the operator, and goodness of fit (R^2) is calculated for each calibration curve.

Mouse keratinocytes = test: MTT cytotoxicity assay, mouse keratinocytes; assay type: cell-based; settings: Keratinocyte, Mouse keratinocytes (normal cells), 72 h
Description: All cell lines were obtained from the American Type Culture Collection (ATCC) and cultured in the specified medium supplemented with 10% fetal bovine serum, 100 IU/mL penicillin, and 100 μg/mL streptomycin at 37°C in a humidified 5% CO2/95% air incubator. Synthesis of new compounds is described in S1 File, and >95% purity of RA475, Up284 and its analogs were confirmed by NMR and MS. To assess drug cytotoxicity, cells were seeded at 2,500 cells/well (10,000 cells/well for MM lines) in 100 μL medium in 96-well plate as triplicates and after 24 h treated with compounds for a further 72 h. To assess cytotoxicity, the cells were incubated for 2 h at 37°C according to the manufacturer’s protocol with the Thiazolyl Blue Tetrazolium Bromide (20 μL/well of 5 mg/mL stock solution in water) (Sigma, M5655) and A570 measured using a Benchmark Plus microplate spectrophotometer (BIO-RAD). IC50 was estimated using Graphpad Prism 7 software.

| solubility at 2 h [2] [µM] | Structure (SMILES) | 4UbFL bioluminescence from leg muscle vs vehicle [1] | IC50 (Mouse keratinocytes) [nM] | 4UbFL stabilization, fold over baseline ([1]; 40 mg/Kg IP) [fold] | stabilization of 4UbFL in muscle ([1]; single oral (PO) 40 mg/Kg dose, 40 mg/kg) | solubility at 2 h ([2]; kinetic, 2% DMSO, 25°C, 2 h, read-out: PBS solubility, pH 7.4, Incubation 1) [µM] | solubility at 2 h ([2]; kinetic, 2% DMSO, 25°C, 2 h, read-out: PBS solubility, pH 7.4, Incubation 2) [µM] | solubility at 2 h ([2]; kinetic, 2% DMSO, 25°C, 2 h, read-out: PBS solubility, pH 7.4, Mean) [µM] |
| --- | --- | --- | --- | --- | --- | --- | --- | --- |
| 37 (≈ 13.5 µg/mL) | N#Cc1ccc(/C=C2/C(=O)/C(=C/c3ccc(C#N)cc3)C23CCNCC3)cc1 [Up284, reference compound] | much weaker effect | > 2500 | – | – | – | – | – |
| – | Cl.Cl.N#Cc1ccc(/C=C2/C(=O)/C(=C/c3ccc(C#N)cc3)C23CCN(C(=N)N)CC3)cc1 [RA475, 1,3-bis((E)-4-cyanobenzylidene)-2-oxo-7-azaspiro[3.5]nonane-7-carboximidamide dihydrochloride] | rapidly increased the bioluminescence | > 2500 | > 20 | much lower than seen for the single IV dose; also recorded: minimal stabilization | 136 | 138 | 137 |
